{"source": "PubChem BioAssay AID2060895", "about": "(Molecular Pharmacology Branch, DTP, NCI, 2025)", "tested_on": "PDC 899932-113-R3-J6 complex spheroid viability", "assay": "Anticancer human tumor 899932-113-R3-J6-PDC patient-derived melanoma cell line growth inhibition [RAS]", "conditions": "for IC50: curve of first compound; for viability, T/C: stronger effect = lower value", "outline": "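Tumour cells grown as complex spheroids with HUVEC endothelial cells and mesenchymal stem cells, treated with RAS pathway inhibitor combinations. Each agent spans half-log steps from near clinical Cmax, or 10 microM where Cmax is unknown.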", "key": {"[1]": {"conditions": "second compound 0.000949 µM, first compound 0.00316 µM"}, "[2]": {"conditions": "second compound 0.000949 µM, first compound 0.01 µM"}, "[3]": {"conditions": "second compound 0.000949 µM, first compound 0.0316 µM"}, "[4]": {"conditions": "second compound 0.000949 µM, first compound 0.1 µM"}, "[5]": {"conditions": "second compound 0.000949 µM, first compound 0.316 µM"}, "[6]": {"conditions": "second compound 0.000949 µM, first compound 1 µM"}, "[7]": {"conditions": "second compound 0.003 µM, first compound 0.00316 µM"}, "[8]": {"conditions": "second compound 0.003 µM, first compound 0.01 µM"}, "[9]": {"conditions": "second compound 0.003 µM, first compound 0.0316 µM"}, "[10]": {"conditions": "second compound 0.003 µM, first compound 0.1 µM"}, "[11]": {"conditions": "second compound 0.003 µM, first compound 0.316 µM"}, "[12]": {"conditions": "second compound 0.003 µM, first compound 1 µM"}, "[13]": {"conditions": "second compound 0.00949 µM, first compound 0.00316 µM"}, "[14]": {"conditions": "second compound 0.00949 µM, first compound 0.01 µM"}, "[15]": {"conditions": "second compound 0.00949 µM, first compound 0.0316 µM"}, "[16]": {"conditions": "second compound 0.00949 µM, first compound 0.1 µM"}, "[17]": {"conditions": "second compound 0.00949 µM, first compound 0.316 µM"}, "[18]": {"conditions": "second compound 0.00949 µM, first compound 1 µM"}, "[19]": {"conditions": "second compound 0.03 µM, first compound 0.00316 µM"}, "[20]": {"conditions": "second compound 0.03 µM, first compound 0.01 µM"}, "[21]": {"conditions": "second compound 0.03 µM, first compound 0.0316 µM"}, "[22]": {"conditions": "second compound 0.03 µM, first compound 0.1 µM"}, "[23]": {"conditions": "second compound 0.03 µM, first compound 0.316 µM"}, "[24]": {"conditions": "second compound 0.03 µM, first compound 1 µM"}, "[25]": {"conditions": "second compound 0.0949 µM, first compound 0.00316 µM"}, "[26]": {"conditions": "second compound 0.0949 µM, first compound 0.01 µM"}, "[27]": {"conditions": "second compound 0.0949 µM, first compound 0.0316 µM"}, "[28]": {"conditions": "second compound 0.0949 µM, first compound 0.1 µM"}, "[29]": {"conditions": "second compound 0.0949 µM, first compound 0.316 µM"}, "[30]": {"conditions": "second compound 0.0949 µM, first compound 1 µM"}, "[31]": {"conditions": "second compound 0.3 µM, first compound 0.00316 µM"}, "[32]": {"conditions": "second compound 0.3 µM, first compound 0.01 µM"}, "[33]": {"conditions": "second compound 0.3 µM, first compound 0.0316 µM"}, "[34]": {"conditions": "second compound 0.3 µM, first compound 0.1 µM"}, "[35]": {"conditions": "second compound 0.3 µM, first compound 0.316 µM"}, "[36]": {"conditions": "second compound 0.3 µM, first compound 1 µM"}}, "data": [{"molecule": "C=CC(=O)Nc1cc(Nc2nccc(-c3cn(C)c4ccccc34)n2)c(OC)cc1N(C)CCN(C)C", "note": "+ CCn1c(-c2cc(N3CCN(C)CC3)cnc2C(C)OC)c2c3cc(ccc31)-c1csc(n1)CC(NC(=O)C1CC1C)C(=O)N1CCCC(N1)C(=O)OCC(C)(C)C2;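 on viability, T/C: spheroids exposed to agents for seven days before readout; 100% = DMSO vehicle control wells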", "values": [{"measurement": "IC50", "setting": "second compound 0.000949 µM", "result": "> 1000", "unit": "nM"}, {"measurement": "IC50", "setting": "second compound 0.003 µM", "result": "< 3.16", "unit": "nM"}, {"measurement": "IC50", "setting": "second compound 0.00949 µM", "result": "< 3.16", "unit": "nM"}, {"measurement": "IC50", "setting": "second compound 0.03 µM", "result": "< 3.16", "unit": "nM"}, {"measurement": "IC50", "setting": "second compound 0.0949 µM", "result": "< 3.16", "unit": "nM"}, {"measurement": "IC50", "setting": "second compound 0.3 µM", "result": "< 3.16", "unit": "nM"}, {"measurement": "viability, T/C", "setting": "[1]", "result": 69.1, "unit": "%"}, {"measurement": "viability, T/C", "setting": "[2]", "result": 69.2, "unit": "%"}, {"measurement": "viability, T/C", "setting": "[3]", "result": 67, "unit": "%"}, {"measurement": "viability, T/C", "setting": "[4]", "result": 79.7, "unit": "%"}, {"measurement": "viability, T/C", "setting": "[5]", "result": 76.7, "unit": "%"}, {"measurement": "viability, T/C", "setting": "[6]", "result": 64.3, "unit": "%"}, {"measurement": "viability, T/C", "setting": "[7]", "result": 32.5, "unit": "%"}, {"measurement": "viability, T/C", "setting": "[8]", "result": 28.4, "unit": "%"}, {"measurement": "viability, T/C", "setting": "[9]", "result": 28.7, "unit": "%"}, {"measurement": "viability, T/C", "setting": "[10]", "result": 33.8, "unit": "%"}, {"measurement": "viability, T/C", "setting": "[11]", "result": 31.5, "unit": "%"}, {"measurement": "viability, T/C", "setting": "[12]", "result": 16.9, "unit": "%"}, {"measurement": "viability, T/C", "setting": "[13]", "result": 4.3, "unit": "%"}, {"measurement": "viability, T/C", "setting": "[14]", "result": 3.34, "unit": "%"}, {"measurement": "viability, T/C", "setting": "[15]", "result": 3.46, "unit": "%"}, {"measurement": "viability, T/C", "setting": "[16]", "result": 3.41, "unit": "%"}, {"measurement": "viability, T/C", "setting": "[17]", "result": 2.9, "unit": "%"}, {"measurement": "viability, T/C", "setting": "[18]", "result": 2.5, "unit": "%"}, {"measurement": "viability, T/C", "setting": "[19]", "result": 2.61, "unit": "%"}, {"measurement": "viability, T/C", "setting": "[20]", "result": 2.72, "unit": "%"}, {"measurement": "viability, T/C", "setting": "[21]", "result": 2.62, "unit": "%"}, {"measurement": "viability, T/C", "setting": "[22]", "result": 2.55, "unit": "%"}, {"measurement": "viability, T/C", "setting": "[23]", "result": 2.41, "unit": "%"}, {"measurement": "viability, T/C", "setting": "[24]", "result": 1.43, "unit": "%"}, {"measurement": "viability, T/C", "setting": "[25]", "result": 2.26, "unit": "%"}, {"measurement": "viability, T/C", "setting": "[26]", "result": 2.18, "unit": "%"}, {"measurement": "viability, T/C", "setting": "[27]", "result": 2.56, "unit": "%"}, {"measurement": "viability, T/C", "setting": "[28]", "result": 2.02, "unit": "%"}, {"measurement": "viability, T/C", "setting": "[29]", "result": 1.87, "unit": "%"}, {"measurement": "viability, T/C", "setting": "[30]", "result": 1.11, "unit": "%"}, {"measurement": "viability, T/C", "setting": "[31]", "result": 2.04, "unit": "%"}, {"measurement": "viability, T/C", "setting": "[32]", "result": 2.23, "unit": "%"}, {"measurement": "viability, T/C", "setting": "[33]", "result": 1.88, "unit": "%"}, {"measurement": "viability, T/C", "setting": "[34]", "result": 1.96, "unit": "%"}, {"measurement": "viability, T/C", "setting": "[35]", "result": 1.49, "unit": "%"}, {"measurement": "viability, T/C", "setting": "[36]", "result": 1.11, "unit": "%"}]}, {"molecule": "O=C(c1ccc(F)c(F)c1Nc1ccc(I)cc1F)N1CC(O)([C@@H]2CCCCN2)C1", "note": "+ CCn1c(-c2cc(N3CCN(C)CC3)cnc2C(C)OC)c2c3cc(ccc31)-c1csc(n1)CC(NC(=O)C1CC1C)C(=O)N1CCCC(N1)C(=O)OCC(C)(C)C2", "values": [{"measurement": "IC50", "setting": "second compound 0.000949 µM", "result": "< 3.16", "unit": "nM"}, {"measurement": "IC50", "setting": "second compound 0.003 µM", "result": "< 3.16", "unit": "nM"}, {"measurement": "IC50", "setting": "second compound 0.00949 µM", "result": "< 3.16", "unit": "nM"}, {"measurement": "IC50", "setting": "second compound 0.03 µM", "result": "< 3.16", "unit": "nM"}, {"measurement": "IC50", "setting": "second compound 0.0949 µM", "result": "< 3.16", "unit": "nM"}, {"measurement": "IC50", "setting": "second compound 0.3 µM", "result": "< 3.16", "unit": "nM"}, {"measurement": "viability, T/C", "setting": "[1]", "result": 39.5, "unit": "%"}, {"measurement": "viability, T/C", "setting": "[2]", "result": 11.1, "unit": "%"}, {"measurement": "viability, T/C", "setting": "[3]", "result": 2.22, "unit": "%"}, {"measurement": "viability, T/C", "setting": "[4]", "result": 1.79, "unit": "%"}, {"measurement": "viability, T/C", "setting": "[5]", "result": 0.22, "unit": "%"}, {"measurement": "viability, T/C", "setting": "[6]", "result": 0.2, "unit": "%"}, {"measurement": "viability, T/C", "setting": "[7]", "result": 13.7, "unit": "%"}, {"measurement": "viability, T/C", "setting": "[8]", "result": 2.9, "unit": "%"}, {"measurement": "viability, T/C", "setting": "[9]", "result": 2.47, "unit": "%"}, {"measurement": "viability, T/C", "setting": "[10]", "result": 1.41, "unit": "%"}, {"measurement": "viability, T/C", "setting": "[11]", "result": 0.18, "unit": "%"}, {"measurement": "viability, T/C", "setting": "[12]", "result": 0.12, "unit": "%"}, {"measurement": "viability, T/C", "setting": "[13]", "result": 3.2, "unit": "%"}, {"measurement": "viability, T/C", "setting": "[14]", "result": 2.49, "unit": "%"}, {"measurement": "viability, T/C", "setting": "[15]", "result": 1.79, "unit": "%"}, {"measurement": "viability, T/C", "setting": "[16]", "result": 0.56, "unit": "%"}, {"measurement": "viability, T/C", "setting": "[17]", "result": 0.06, "unit": "%"}, {"measurement": "viability, T/C", "setting": "[18]", "result": 0.13, "unit": "%"}, {"measurement": "viability, T/C", "setting": "[19]", "result": 2.9, "unit": "%"}, {"measurement": "viability, T/C", "setting": "[20]", "result": 2.26, "unit": "%"}, {"measurement": "viability, T/C", "setting": "[21]", "result": 1.17, "unit": "%"}, {"measurement": "viability, T/C", "setting": "[22]", "result": 0.14, "unit": "%"}, {"measurement": "viability, T/C", "setting": "[23]", "result": 0.07, "unit": "%"}, {"measurement": "viability, T/C", "setting": "[24]", "result": 0.11, "unit": "%"}, {"measurement": "viability, T/C", "setting": "[25]", "result": 1.79, "unit": "%"}, {"measurement": "viability, T/C", "setting": "[26]", "result": 1.48, "unit": "%"}, {"measurement": "viability, T/C", "setting": "[27]", "result": 0.57, "unit": "%"}, {"measurement": "viability, T/C", "setting": "[28]", "result": 0.07, "unit": "%"}, {"measurement": "viability, T/C", "setting": "[29]", "result": 0.1, "unit": "%"}, {"measurement": "viability, T/C", "setting": "[30]", "result": 0.13, "unit": "%"}, {"measurement": "viability, T/C", "setting": "[31]", "result": 1.39, "unit": "%"}, {"measurement": "viability, T/C", "setting": "[32]", "result": 1.61, "unit": "%"}, {"measurement": "viability, T/C", "setting": "[33]", "result": 0.46, "unit": "%"}, {"measurement": "viability, T/C", "setting": "[34]", "result": 0.12, "unit": "%"}, {"measurement": "viability, T/C", "setting": "[35]", "result": 0.17, "unit": "%"}, {"measurement": "viability, T/C", "setting": "[36]", "result": 0.17, "unit": "%"}]}]}
